Measured values taken from patent US20120214847A1, “2-[1-PHENYL-5-HYDROXY-4a-SUBSTITUTED-HEXAHYDROCYCLOPENTA[F]INDAZOL-5-YL]ETHYL PHENYL DERIVATIVES AS GLUCOCORTICOID RECEPTOR LIGANDS” (Merck Sharp & Dohme Corp., priority 2009, published 2012).

Target: T1, human GR (Homo sapiens, UniProt P04150)
T1 construct: naturally expresses the human GR; endogenous in cells
T1 sequence (P04150 1-777): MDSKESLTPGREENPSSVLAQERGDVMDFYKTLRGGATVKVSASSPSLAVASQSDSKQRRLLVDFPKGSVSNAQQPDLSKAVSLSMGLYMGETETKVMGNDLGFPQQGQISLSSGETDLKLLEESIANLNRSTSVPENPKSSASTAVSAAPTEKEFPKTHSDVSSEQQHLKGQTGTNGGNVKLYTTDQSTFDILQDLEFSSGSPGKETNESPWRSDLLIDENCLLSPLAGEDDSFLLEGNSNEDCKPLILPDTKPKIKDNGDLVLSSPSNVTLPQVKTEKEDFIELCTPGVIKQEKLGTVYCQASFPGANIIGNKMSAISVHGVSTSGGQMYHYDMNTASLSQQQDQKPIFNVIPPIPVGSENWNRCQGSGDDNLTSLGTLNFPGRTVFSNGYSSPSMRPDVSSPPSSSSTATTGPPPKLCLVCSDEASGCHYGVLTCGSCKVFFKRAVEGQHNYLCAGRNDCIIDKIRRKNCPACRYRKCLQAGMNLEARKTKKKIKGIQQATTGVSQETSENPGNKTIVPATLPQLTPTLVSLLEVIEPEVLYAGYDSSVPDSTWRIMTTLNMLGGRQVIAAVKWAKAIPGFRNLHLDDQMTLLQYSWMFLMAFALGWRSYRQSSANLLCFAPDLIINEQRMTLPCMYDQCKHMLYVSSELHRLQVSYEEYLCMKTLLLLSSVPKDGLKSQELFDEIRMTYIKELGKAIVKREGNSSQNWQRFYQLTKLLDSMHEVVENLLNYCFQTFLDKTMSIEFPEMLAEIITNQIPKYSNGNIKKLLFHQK
Test: Transrepression assay (GITAR), TNFα-β-lactamase reporter in U937 cells
Assay type: cell-based
Details: for EC50: U937 cells, IP = inflection point; for Emax: U-937, U937 cells, activity repressed by 100 nM dexamethasone alone set as 100%
Outline: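 U937 cells stably carrying TNFα promoter–β-lactamase, endogenous GR, preincubated with compound 30–45 min at 37° C., then stimulated with 5 ng/ml PMA plus 100 ng/ml LPS for ~18 h. CCF2-AM read-out; repression by 100 nM dexamethasone set as 100%.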

Row | Structure (SMILES) | EC50 [nM] | Emax [%]
1 | CC[C@]12Cc3cnn(-c4cccnc4)c3C=C1CC[C@@]2(O)CCc1ccccc1C#N [Example 5, 2-{2-[(4aS,5R)-4a-Ethyl-5-hydroxy-1-(pyridin-3-yl)-1,4,4a,5,6,7-hexahydrocyclopenta[f]indazol-5-yl]ethyl}benzonitrile] | 31 | 80
2 | N#Cc1ccnc(CC[C@]2(O)CCC3=Cc4c(cnn4-c4ccc(F)cc4)C[C@@]32C2CC2)c1 [Example 35, 2-{2-[(4aR,5R)-4a-Cyclopropyl-1-(4-fluorophenyl)-5-hydroxy-1,4,4a,5,6,7-hexahydrocyclopenta[f]indazol-5-yl]ethyl}pyridine-4-carbonitrile] | 73 | 87
3 | CC[C@]12Cc3cnn(-c4cccnc4)c3C=C1CC[C@@]2(O)CCc1ccc(F)cc1C#N [Example 9, 2-{2-[(4aS,5R)-4a-Ethyl-5-hydroxy-1-(pyridin-3-yl)-1,4,4a,5,6,7-hexahydrocyclopenta[f]indazol-5-yl]ethyl}-5-fluorobenzonitrile] | 120 | 71
4 | CC[C@]12Cc3cnn(-c4ccc(F)cc4)c3C=C1CC[C@@]2(O)CC(O)c1ncccc1Cl (stereo partly drawn) [Example 70, (4aS,5R)-5-[2-(3-Chloropyridin-2-yl)-2-hydroxyethyl]-4a-ethyl-1-(4-fluorophenyl)-1,4,4a,5,6,7-hexahydrocyclopenta[f]indazol-5-ol] | 142 | 79
5 | CC[C@]12Cc3cnn(-c4ccc(F)cc4)c3C=C1CC[C@@]2(O)CCc1ccccc1S(C)(=O)=O [Example 42, (4aS,5R)-4a-Ethyl-1-(4-fluorophenyl)-5-{2-[2-(methylsulfonyl)phenyl]ethyl}-1,4,4a,5,6,7-hexahydrocyclopenta[f]indazol-5-ol] | 11 | 89
6 | CC[C@]12Cc3cnn(-c4ccc(F)cc4)c3C=C1CC[C@@]2(O)CCc1ccccc1S(=O)(=O)CC [Example 51, (4aS,5R)-4a-Ethyl-5-{2-[2-(ethylsulfonyl)phenyl]ethyl}-1-(4-fluorophenyl)-1,4,4a,5,6,7-hexahydrocyclopenta[f]indazol-5-ol] | 65 | 83
7 | N#Cc1ccccc1CC[C@]1(O)CCC2=Cc3c(cnn3-c3ccccc3)C[C@@]21C1CC1 [Example 27, 2-{2-[(4aR,5R)-4a-Cyclopropyl-5-hydroxy-1-phenyl-1,4,4a,5,6,7-hexahydrocyclopenta[f]indazol-5-yl]ethyl}benzonitrile] | 51 | 86
8 | N#Cc1cccnc1CC[C@]1(O)CCC2=Cc3c(cnn3-c3ccc(F)cc3)C[C@@]21C1CC1 [Example 31, 2-{2-[(4aR,5R)-4a-Cyclopropyl-1-(4-fluorophenyl)-5-hydroxy-1,4,4a,5,6,7-hexahydrocyclopenta[f]indazol-5-yl]ethyl}pyridine-3-carbonitrile] | 13 | 89
9 | OC(C[C@]1(O)CCC2=Cc3c(cnn3-c3ccc(F)cc3)C[C@@]21C1CC1)c1ccc(F)cn1 (single isomer, unassigned) [Example 79a] | 167 | 41
10 | NC(=O)c1c(C(F)(F)F)ccnc1CC[C@]1(O)CCC2=Cc3c(cnn3-c3ccc(F)cc3)C[C@@]21C1CC1 [Example 55, 2-{2-[(4aR,5R)-4a-Cyclopropyl-1-(4-fluorophenyl)-5-hydroxy-1,4,4a,5,6,7-hexahydrocyclopenta[f]indaozol-5-yl]ethyl}-4-(trifluoromethyl)pyridine-3-carboxamide] | 2 | 87
11 | CC[C@]12Cc3cnn(-c4ccccc4)c3C=C1CC[C@@]2(O)CCc1ccccc1C(N)=O [Example 20, 2-{2-[(4aS,5R)-4a-Ethyl-5-hydroxy-1-phenyl-1,4,4a,5,6,7-hexahydrocyclopenta[f]indazol-5-yl]ethyl}benzamide] | 28 | 86
